Series [1] is described as follows: Stability in simulated intestinal fluid (SIF), RP-HPLC. Conditions: simulated intestinal fluid (SIF), 150 µM, 37 °C, 24 h, read-out: unmetabolized peptide remaining (remained stable). The format is in vitro ADME. The protocol:
(§1) The preparation of the media was performed as described before in Elfgen et al.[24]. Preparation of simulated gastric and intestinal fluid (SGF & SIF) was done according to the European Pharmacopoeia 7.0. Plasma samples were obtained from human blood of a volunteer donor. Pooled human liver microsomes were purchased from Sekisui XenoTech (Kansas City, USA; H1000, Lot: 0710494 and 1210270; H1500, Lot: 1210079), from Sigma-Aldrich (St. Louis, USA; M0692, Lot: SLBL1433V; M0567, Lot: SLBR2706V and SLBN7300V) and from Gibco, Thermo Fisher Scientific (Waltham, USA; HMMCPL, Lot: PL050; HMMCPM, Lot: PL039). Pooled Sprague Dawley rat liver microsomes were purchased from Sigma-Aldrich (St. Louis, USA; M9066, Lot: SLBN0707V) and from Gibco, Thermo Fisher Scientific (Waltham, USA; RTMCPL, Lot: RT053). Pooled cynomolgus monkey liver microsomes were purchased from Gibco, Thermo Fisher Scientific (Waltham, USA; MKMCPL, Lot: MK062) and from Sekisui XenoTech (Kansas City, USA; P2000, Lot: 1210334). The liver microsomes were diluted in an NADPH regenerating system (NRS).
For the stability tests, 150 µM RD2 or L-RD2 was incubated in SGF, SIF, human plasma and human liver microsomes in triplicate at 37 °C with slight shaking for different time periods. To prevent microbial contaminations in long-term plasma incubations, 0.1% sodium azide was added to the solutions. Microsomal long-term activity was examined by incubating microsomes without peptide for up to 24 h and adding L-RD2 after 8 and 24 h. The ability to degrade L-RD2 served as indicator for their activity. For the comparison of RD2 metabolite profiles across species, 150 µM RD2 was incubated in human, rat and cynomolgus liver microsomes at 37 °C for 2 and 24 h. […]
For sample analysis from stability tests (see 2.3), mobile phases were acetonitrile (A) and water (B) each supplemented with 0.15% trifluoroacetic acid (TFA) (v/v). The samples were measured isocratically at 10% solvent A for 30 min. […] A chromatographic metabolite profile of L-RD2 in SIF was recorded with the same mobile phases but using a gradient from 0 to 30% solvent A in 30 min.

The nature of series [2]: Stability in human liver microsomes, RP-HPLC / UHPLC-ESI-QTOF-MS. It counts as in vitro ADME. How it is done:
as §1
(§2) For the stability tests, 150 µM RD2 or L-RD2 was incubated in SGF, SIF, human plasma and human liver microsomes in triplicate at 37 °C with slight shaking for different time periods. To prevent microbial contaminations in long-term plasma incubations, 0.1% sodium azide was added to the solutions. Microsomal long-term activity was examined by incubating microsomes without peptide for up to 24 h and adding L-RD2 after 8 and 24 h. The ability to degrade L-RD2 served as indicator for their activity. For the comparison of RD2 metabolite profiles across species, 150 µM RD2 was incubated in human, rat and cynomolgus liver microsomes at 37 °C for 2 and 24 h. The peptides were extracted by precipitating the proteins with trichloroacetic acid (TCA) and subsequent centrifugation, as described previously in Elfgen et al.[24]. Peptides immediately extracted from the media and precipitated media without peptides served as controls.
For sample analysis from stability tests (see 2.3), mobile phases were acetonitrile (A) and water (B) each supplemented with 0.15% trifluoroacetic acid (TFA) (v/v). The samples were measured isocratically at 10% solvent A for 30 min. This run conditions allowed us to detect smallest chemical changes including the differentiation between the original compound and a deamidated version (Fig. S1). RD2 and L-RD2 can potentially be deamidated at two sites, the C-terminus and the asparagine at position seven. Peak areas of the unmetabolized peptides after different incubation times were normalized to the peptides’ peak areas after direct extraction from the media. […] A chromatographic metabolite profile of L-RD2 in SIF was recorded with the same mobile phases but using a gradient from 0 to 30% solvent A in 30 min. […]
For orientation: Liver microsomes are a subcellular fraction often used to study metabolism.

Series [3] can be described thus: Comparison of RD2 metabolite profiles across species: human liver microsomes. It counts as in vitro ADME. The protocol:
as §1, §2
For the comparison of RD2 metabolite profiles across species (see 2.3), mobile phases were acetonitrile (A) and water (B) each supplemented with 0.1% TFA. The gradient ran from 0 to 100% solvent A and is described in detail in Table S1. The chromatographic RD2 metabolite profiles were screened for potential human-specific metabolites. RD2 and the major RD2 metabolite present after 24 h of incubation in human liver microsome batches 7 and 8, HSM-3, were purified by RP-HPLC. Mobile phases were acetonitrile (A) and water (B) each supplemented with 0.15% TFA. The samples were separated isocratically at 10% solvent A for 30 min. RD2 as well as HSM-3 were collected and the samples were freeze-dried subsequently. The amount of the purified HSM-3 was calculated based on a calibration curve of 10 to 100 µM RD2 extracted from human liver microsomes.

Series [4] in a line: Inhibition assay: degradation of L-peptide […] with and without RD2. The format is in vitro ADME. Conditions: 150 µM RD2 + 150 µM L-peptide; SGF, SIF 5 min; plasma, liver microsomes 30 min. How it is done: To investigate whether RD2 acts as potential inhibitor for the enzymes contained in SGF, SIF, human blood plasma and human liver microsomes, an exemplary L-peptide, […], was incubated in these media with and without RD2 and the potential inhibition of the L-peptide’s degradation was monitored. This control was intended to reveal a potential resistance of RD2 to degradation due to enzyme inhibition instead of pure degradation resistance. […] For this purpose, 150 µM of the L-peptide with or without 150 µM RD2 was incubated in SGF, SIF, human plasma and liver microsomes and both peptides were extracted from the media immediately or after 5 min (SGF, SIF) or 30 min (plasma, liver microsomes) with the method mentioned under point 2.3. Time dependent compound degradation or modification was followed by RP-HPLC (see 2.8).
For analysis of the inhibition assay with enzymes contained in SGF, SIF, plasma and liver microsomes (see 2.4), RD2, […] and remaining media components were separated using the mobile phases acetonitrile (A) and water (B) each supplemented with 0.15% TFA and a gradient from 0 to 50% solvent A in 15 min.

In another series the target is CYP2D6 (Homo sapiens, UniProt P10635). The experiment in a line: CYP isoform inhibition in human liver microsomes (Cyprotex). It counts as in vitro ADME. How it is done: The experiments were performed by Cyprotex. […] All assays were performed sevenfold.
Another series addresses CYP2C19 (Homo sapiens, UniProt P33261). The series is described as above.
For another series, the target named is CYP3A4 (Homo sapiens, UniProt P08684). The description is as above.

Entries after “also recorded” stand apart in the source; their conditions may differ. Non-standard residues stand in square brackets, D forms with d. Residues, ends and D or L forms follow the SMILES beside them.

Sequence of CYP2D6 (P10635 whole entry, canonical isoform): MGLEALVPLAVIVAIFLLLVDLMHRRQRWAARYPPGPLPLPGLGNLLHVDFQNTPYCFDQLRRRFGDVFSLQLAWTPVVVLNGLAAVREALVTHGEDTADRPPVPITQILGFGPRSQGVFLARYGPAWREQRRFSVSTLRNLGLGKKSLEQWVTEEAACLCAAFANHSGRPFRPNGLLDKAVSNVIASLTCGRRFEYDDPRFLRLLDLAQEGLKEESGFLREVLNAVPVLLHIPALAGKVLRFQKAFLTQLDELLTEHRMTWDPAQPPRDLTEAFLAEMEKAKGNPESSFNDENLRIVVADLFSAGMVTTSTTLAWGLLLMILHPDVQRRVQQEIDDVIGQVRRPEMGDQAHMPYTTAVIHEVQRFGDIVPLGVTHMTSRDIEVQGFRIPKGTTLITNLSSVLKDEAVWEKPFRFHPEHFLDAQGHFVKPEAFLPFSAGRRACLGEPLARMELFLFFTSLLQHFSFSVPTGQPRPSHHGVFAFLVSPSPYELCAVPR
Sequence of CYP2C19 (P33261 whole entry): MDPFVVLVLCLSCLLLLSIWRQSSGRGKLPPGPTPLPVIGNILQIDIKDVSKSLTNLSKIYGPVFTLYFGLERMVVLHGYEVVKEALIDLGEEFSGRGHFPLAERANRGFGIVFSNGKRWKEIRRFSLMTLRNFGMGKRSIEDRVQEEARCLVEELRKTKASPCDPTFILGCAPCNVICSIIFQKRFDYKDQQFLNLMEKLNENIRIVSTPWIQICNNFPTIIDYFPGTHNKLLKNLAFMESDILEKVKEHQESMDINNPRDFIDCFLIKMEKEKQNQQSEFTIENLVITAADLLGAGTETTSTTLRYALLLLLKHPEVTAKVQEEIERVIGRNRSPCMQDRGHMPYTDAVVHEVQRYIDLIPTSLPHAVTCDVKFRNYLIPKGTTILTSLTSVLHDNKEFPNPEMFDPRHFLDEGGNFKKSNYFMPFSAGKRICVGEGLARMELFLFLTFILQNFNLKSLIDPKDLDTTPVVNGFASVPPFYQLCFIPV
Sequence of CYP3A4 (P08684 whole entry): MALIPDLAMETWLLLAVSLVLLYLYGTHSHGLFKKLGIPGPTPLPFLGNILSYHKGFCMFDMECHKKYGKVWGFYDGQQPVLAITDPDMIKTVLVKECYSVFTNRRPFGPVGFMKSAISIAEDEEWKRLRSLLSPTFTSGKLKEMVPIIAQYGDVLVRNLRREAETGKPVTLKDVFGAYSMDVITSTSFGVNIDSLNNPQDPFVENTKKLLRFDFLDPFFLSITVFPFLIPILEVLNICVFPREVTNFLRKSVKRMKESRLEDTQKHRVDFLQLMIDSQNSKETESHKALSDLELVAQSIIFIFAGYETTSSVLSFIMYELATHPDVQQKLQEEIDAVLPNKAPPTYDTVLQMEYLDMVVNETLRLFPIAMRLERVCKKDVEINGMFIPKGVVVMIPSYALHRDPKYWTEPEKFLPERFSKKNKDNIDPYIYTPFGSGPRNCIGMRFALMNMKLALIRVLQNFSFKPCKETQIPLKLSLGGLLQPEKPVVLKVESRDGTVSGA
Experimental for CYP2C19: (§3) The experiments were performed by Cyprotex. […] The reactions were terminated by methanol and the generated metabolites were monitored by LC-MS/MS or fluorescence. […] All assays were performed sevenfold. […] For all other substrates, the termination plates were centrifuged at 2,500 rpm and 4 °C for 30 min and aliquots of the supernatants were combined and transferred to fresh 96-well plates. Formic acid in deionized water (final concentration 0.1%) containing internal standard was added to the supernatants prior to cassette analysis by LC-MS/MS. A decrease in the formation of the metabolite compared to the vehicle control was used to calculate the IC50 values.
Experimental for CYP3A4: as §3

Turning to `CC(C)C[C@@H](NC(=O)[C@H](NC(=O)[C@H]1CCCN1)[C@H](C)O)C(=O)N[C@H](Cc1c[nH]cn1)C(=O)N[C@@H](C(=O)N[C@H](Cc1c[nH]cn1)C(=O)N[C@H](CC(N)=O)C(=O)N[C@H](CCCNC(=N)N)C(=O)N[C@H](CCCNC(=N)N)C(=O)N[C@H](CCCNC(=N)N)C(=O)N[C@H](CCCNC(=N)N)C(=O)N[C@H](CCCNC(=N)N)C(N)=O)[C@H](C)O` [RD2, ptlhthnrrrrr] (H-[dP][dT][dL][dH][dT][dH][dN][dR][dR][dR][dR][dR]-NH2), the amount remaining (commonly what is left of the initial amount, in per cent) at 24 h, 150 µM in series [1] is not below 97%. Further, the peptide metabolized in series [2] (150 µM, 37 °C, within 24 h) is 33 ± 3%. In addition, the “deamidation in human liver microsomes” value in series [2] (UHPLC-ESI-QTOF-MS) is “not deamidated”. In addition, the “metabolization of RD2 after 2 h” value in series [3] (human samples 1–6, 150 µM, 2 h) is “unmetabolized”. In series [3] (human samples 1–6, 24 h), the “decrease of the intensity of the RD2 peak” value came to 21 ± 7%. For the same compound, the “influence of RD2 on degradation of the L-peptide KLVFFRRRRRR” value in series [4] was “not influenced; also recorded: did not influence the degradation of the L-peptide in any of the media”. Moreover, on CYP2D6 (concentration range 0 to 25 µM), the “inhibition of CYP2D6” value is “did not inhibit”. In addition, the inhibition (in general, the change of the read-out against control, counted positive when it falls) at 0.25 µM against CYP2D6 (human, human liver microsomes, 0.25 µM RD2) is 1.33%; against CYP2C19 (human, human liver microsomes), 7.64%; on CYP3A4 (human, human liver microsomes), -0.223%. The inhibition at 1 µM against CYP2D6 (human, human liver microsomes, 1 µM RD2) amounted to 0.671%; on CYP2C19 (human, human liver microsomes) it was 2.47%; at CYP3A4 (human, human liver microsomes), 5.77%. In addition, the inhibition at 2.5 µM on CYP2D6 (human, human liver microsomes, 2.5 µM RD2) amounted to 3.53%; at CYP2C19 (human, human liver microsomes) it was 2.54%; against CYP3A4 (human, human liver microsomes) it was 1.71%. Further, the inhibition at 10 µM on CYP2D6 (human, human liver microsomes, 10 µM RD2) was -5.9%; on CYP2C19 (human, human liver microsomes), -5.77%; on CYP3A4 (human, human liver microsomes), -3.08%. The inhibition at 25 µM was -9.57% on CYP2D6 (human, human liver microsomes, 25 µM RD2); -45.5% against CYP2C19 (human, human liver microsomes); -12% on CYP3A4 (human, human liver microsomes). In addition, the “inhibition of CYP2C19” value against CYP2C19 (concentration range 0 to 25 µM) is given as “did not inhibit”. Also, the “inhibition of CYP3A4” value on CYP3A4 (concentration range 0 to 25 µM) is given as “did not inhibit”.

Values taken from publication PMC6450887, “Metabolic resistance of the D-peptide RD2 developed for direct elimination of amyloid-β oligomers” (Scientific Reports, 2019).
